The results in this text go back to ChEMBL document CHEMBL3580594, “Synthesis and biological evaluation of 4-substituted fluoronucleoside analogs for the treatment of hepatitis B virus infection” (J Med Chem, 2015).

For data set [1], the system named is Duck hepatitis B virus. Briefly: Antiviral activity against duck Hepatitis B virus infected in duck assessed as inhibition of viral DNA replication in liver at 20 mg/kg/day, po treatment initiated at day 10 after infection relative to control. The format is functional. The settings on record: 240 h.
The subject of data set [2] is Duck hepatitis B virus. Briefly: Antiviral activity against duck Hepatitis B virus infected in duck assessed as inhibition of viral DNA replication in serum at 20 mg/kg/day, po treatment initiated at day 10 after infection relative to control. The format is functional. The settings on record: 240 h.
Data set [3] in a line: Cmax in Sprague-Dawley rat at 32 mg/kg, po. The settings on record: in vivo. The format is ADME, organism-based. Also noted: dose 32 mg/kg, route oral.
The subject of data set [4] is Duck hepatitis B virus. Briefly: Antiviral activity against duck Hepatitis B virus infected in duck assessed as inhibition of viral DNA replication in liver at 20 mg/kg/day, po treatment initiated at day 5 after infection relative to control. The format is functional. The settings on record: 120 h.
The test system of data set [5] is Duck hepatitis B virus. Kind of data set: Antiviral activity against duck Hepatitis B virus infected in duck assessed as inhibition of viral DNA replication in serum at 20 mg/kg/day, po treatment initiated at day 5 after infection relative to control. The format is functional. The settings on record: 120 h.
Data set [6] is described as follows: Oral bioavailability in Sprague-Dawley rat at 32 mg/kg. Type of data set: ADME, organism-based. The settings on record: in vivo.
Data set [7] has as its system Duck hepatitis B virus. Briefly: Antiviral activity against duck Hepatitis B virus infected in duck assessed as inhibition of viral DNA replication in serum at 20 mg/kg/day, po measured after 3 days of treatment withdrawal. Type of data set: functional. The conditions noted are these: 72 h.
Data set [8] deals with Duck hepatitis B virus. Kind of data set: Antiviral activity against duck Hepatitis B virus infected in duck assessed as inhibition of viral DNA replication in liver at 20 mg/kg/day, po measured after 3 days of treatment withdrawal. The format is functional. The settings on record: 72 h.
Data set [9] in a line: Tmax in Sprague-Dawley rat at 32 mg/kg, po. The format is ADME, organism-based. The conditions noted are these: in vivo.
Data set [10] relates to Hepatitis B virus. Briefly: Antiviral activity against Hepatitis B virus in HepG2.CW cells assessed as inhibition of viral DNA replication at 1 uM after 9 days by real-time FQ-PCR analysis. The format is functional. The settings on record: 216 h.
Data set [11] is described as follows: Cytotoxicity against human HepG2.2.15 cells by MTT assay. Type of data set: cell-based, HepG2 2.2.15.
Data set [12] concerns Hepatitis B virus. Briefly: Antiviral activity against Hepatitis B virus in HepG2.2.15 cells assessed as inhibition of intracellular viral DNA replication at 0.1 uM after 3 days by real-time FQ-PCR analysis. Type of data set: functional. The settings on record: HepG2 2.2.15, 72 h.
Data set [13] concerns Hepatitis B virus. Kind of data set: Antiviral activity against Hepatitis B virus in HepG2.2.15 cells assessed as inhibition of extracellular viral DNA replication at 0.1 uM after 9 days by real-time FQ-PCR analysis. Type of data set: functional. The settings on record: HepG2 2.2.15, 216 h.
For data set [14], the system named is Hepatitis B virus. Briefly: Antiviral activity against Hepatitis B virus in HepG2.2.15 cells assessed as inhibition of intracellular viral DNA replication at 0.1 uM after 6 days by real-time FQ-PCR analysis. The conditions noted are these: HepG2 2.2.15, 144 h. Type of data set: functional.
In data set [15] the test system is Hepatitis B virus. Kind of data set: Antiviral activity against Hepatitis B virus in HepG2.2.15 cells assessed as inhibition of extracellular viral DNA replication at 0.1 uM after 3 days by real-time FQ-PCR analysis. Type of data set: functional. The conditions noted are these: HepG2 2.2.15, 72 h.
The test system of data set [16] is Hepatitis B virus. Briefly: Antiviral activity against Hepatitis B virus in HepG2.2.15 cells assessed as inhibition of intracellular viral DNA replication at 0.1 uM after 9 days by real-time FQ-PCR analysis. Type of data set: functional. The settings on record: HepG2 2.2.15, 216 h.
Data set [17] relates to Hepatitis B virus. Kind of data set: Antiviral activity against Hepatitis B virus in HepG2.2.15 cells assessed as inhibition of extracellular viral DNA replication at 0.1 uM after 6 days by real-time FQ-PCR analysis. The settings on record: HepG2 2.2.15, 144 h. Type of data set: functional.
In data set [18] the test system is Rattus norvegicus. Kind of data set: In vivo drug formation in rat urine sample treated with 1-((2R,3S,4R,5R)-5-Azido-3-fluoro-4-hydroxy-5-(hydroxymethyl)tetrahydrofuran-2-yl)-4-(cyclopropylamino)-pyrimidin-2(1H)-one by LC-MS/MS analysis. Type of data set: ADME, organism-based.
Data set [19] relates to Rattus norvegicus. Briefly: In vivo drug formation in rat plasma sample treated with 1-((2R,3S,4R,5R)-5-Azido-3-fluoro-4-hydroxy-5-(hydroxymethyl)tetrahydrofuran-2-yl)-4-(cyclopropylamino)-pyrimidin-2(1H)-one by LC-MS/MS analysis. The format is ADME, organism-based.
Data set [20] relates to Rattus norvegicus. Briefly: In vivo drug formation in rat bile sample treated with 1-((2R,3S,4R,5R)-5-Azido-3-fluoro-4-hydroxy-5-(hydroxymethyl)tetrahydrofuran-2-yl)-4-(cyclopropylamino)-pyrimidin-2(1H)-one by LC-MS/MS analysis. The format is ADME, organism-based.
Data set [21] concerns Rattus norvegicus. Briefly: In vivo drug formation in rat urine sample treated with 1-((2R,3S,4R,5R)-5-Azido-3-fluoro-4-hydroxy-5-(hydroxymethyl)tetrahydrofuran-2-yl)-4-(cyclopropylamino)-pyrimidin-2(1H)-one by NMR spectrum. Type of data set: ADME, organism-based.
Data set [22] has as its system Hepatitis B virus. Briefly: Antiviral activity against lamivudine-resistant Hepatitis B virus. The format is functional, organism-based.
The subject of data set [23] is Hepatitis B virus. Kind of data set: Antiviral activity against wild type Hepatitis B virus. The format is functional, organism-based.

Molecules are shown by their SMILES. Where only a bound is given, the exact number is not on record here.

For `Nc1ccn([C@@H]2CS[C@H](CO)O2)c(=O)n1` [LAMIVUDINE], the inhibition in vivo at 20 mg/kg/day came to 84% in data set [1]; 82.2% in data set [2]; 52.7% in [4]; 88.6% in data set [5]; 79.3% in [7]; 76.2% in [8]. In data set [3], this compound yielded a Cmax of 274 ng/mL. This compound registered a bioavailability in [6] of 18.7%. For the same compound, the Tmax in data set [9] stood at 5 h.

With `CCN(CC)c1ccn([C@@H]2O[C@@](CO)(N=[N+]=[N-])[C@@H](O)[C@@H]2F)c(=O)n1`, the inhibition at 1 µM in data set [10] was 7.1%. The same compound came in with a half-maximal cytotoxic concentration (CC50) in [11] of more than 125 µM.

Take `CC(C)Nc1ccn([C@@H]2O[C@@](CO)(N=[N+]=[N-])[C@@H](O)[C@@H]2F)c(=O)n1`: the inhibition at 1 µM in [10] was determined as 43.7%. For the same compound, the half-maximal cytotoxic concentration (CC50) in data set [11] was more than 125 µM.

Consider `CCC(C)Nc1ccn([C@@H]2O[C@@](CO)(N=[N+]=[N-])[C@@H](O)[C@@H]2F)c(=O)n1` (stereo not given in full), for which, in [10], the inhibition at 1 µM turned out to be 61.7%. The CC50 in [11] was more than 125 µM.

Consider `CCNc1ccn([C@@H]2O[C@@](CO)(N=[N+]=[N-])[C@@H](O)[C@@H]2F)c(=O)n1`, for which the inhibition at 1 µM in [10] was determined as 78%. In [11], this compound gave a cytotoxic concentration (CC50) of more than 125 µM.

In the case of `C=C1[C@H](CO)[C@@H](O)C[C@@H]1n1cnc2c(=O)[nH]c(N)nc21`, the inhibition at 0.1 µM in [12] is 37.8%; in data set [13], 78.6%; in data set [14], 40.6%; in [15] it was 38.2%; in [16], 57.6%; in data set [17] it was 47.8%. The inhibition at 1 µM in data set [10] was found to be 95.7%. Moreover, in [11], half-maximal cytotoxicity (CC50) was put at 30 µM.

With `CN(C)c1ccn([C@@H]2O[C@@](CO)(N=[N+]=[N-])[C@@H](O)[C@@H]2F)c(=O)n1`, the inhibition at 1 µM in [10] turned out to be 43.6%. The compound also displayed a CC50 in data set [11] of more than 125 µM.

In the case of `[N-]=[N+]=N[C@]1(CO)O[C@@H](n2ccc(=O)[nH]c2=O)[C@@H](F)[C@@H]1O`, in data set [10], the inhibition at 1 µM was found to be 75.5%. This compound gave a CC50 in data set [11] of more than 125 µM.

Consider `CNc1ccn([C@@H]2O[C@@](CO)(N=[N+]=[N-])[C@@H](O)[C@@H]2F)c(=O)n1`, for which the inhibition at 1 µM in data set [10] turned out to be 81.1%. Further, the CC50 in [11] is more than 125 µM.

Take `[N-]=[N+]=N[C@]1(CO)O[C@@H](n2ccc(NC3C(O)C3O)nc2=O)[C@@H](F)[C@@H]1O` (stereo not given in full): the Drug metabolism result in data set [18] is “metabolite_detected”.

Take `[N-]=[N+]=N[C@]1(CO)O[C@@H](n2ccc(NC3CC3O)nc2=O)[C@@H](F)[C@@H]1O` (stereo not given in full): the Drug metabolism result in [19], in data set [20] and in [18] was “metabolite_detected” in each case.

Regarding `[N-]=[N+]=N[C@]1(CO)O[C@@H](n2ccc(NC3CCCCC3)nc2=O)[C@@H](F)[C@@H]1O`, the inhibition at 1 µM in data set [10] amounted to 23.6%. For the same compound, the CC50 in [11] is more than 125 µM.

Regarding `[N-]=[N+]=N[C@]1(CO)O[C@@H](n2ccc(N)nc2=O)[C@@H](F)[C@@H]1O` [RO-0622], the Drug metabolism result in data set [21] and in data set [18] was “metabolite_detected” throughout. The EC50 in data set [22] amounted to 270 nM; in data set [23], 120 nM.

Turning to `[N-]=[N+]=N[C@]1(CO)O[C@@H](n2ccc(NC3CCCC3)nc2=O)[C@@H](F)[C@@H]1O`, the inhibition at 1 µM in data set [10] was found to be 37.3%. Besides, in data set [11], the CC50 was more than 125 µM.

In the case of `[N-]=[N+]=N[C@]1(CO)O[C@@H](n2ccc(N3CCCC3)nc2=O)[C@@H](F)[C@@H]1O`, the inhibition at 1 µM in [10] was found to be 33.1%. In data set [11], this compound gave a cytotoxic concentration (CC50) of more than 125 µM.
